Data as given in patent US20230092163A1, “COMPOUNDS AND COMPOSITIONS FOR TREATING CONDITIONS ASSOCIATED WITH STING ACTIVITY” (IFM Due, Inc., priority 2019, published 2023).

Target: STING (Homo sapiens, UniProt Q86WV6, G230A/H232R/R293Q/R71H)
Test: STING reporter assay: THP1-Dual KO-IFNAR2 cells stimulated with 2′3′cGAMP, luciferase reporter activity
Assay type: cell-based
Settings: 15 μM 2′3′cGAMP, 24h
Description: STING pathway activation by the compounds described herein were measured using THP1-Dual™ cells (KO-IFNAR2).
THP1-Dual™ KO-IFNAR2 Cells (obtained from invivogen) were maintained in RPMI, 10% FCS, 5 ml P/S, 2 mM L-glut, 10 mM Hepes, and 1 mM sodium pyruvate. Compounds were spotted in empty 384 well tissue culture plates (Greiner 781182) by Echo for a final concentration of 0.0017-100 μM. Cells were plated into the TC plates at 40 μL per well, 2×10E6 cells/mL. For activation with STING ligand, 2′3′cGAMP (MW 718.38, obtained from Invivogen), was prepared in Optimem media.
The following solutions were prepared for each 1×384 plate: • Solution A: 2 mL Optimem with one of the following stimuli: • 60 uL of 10 mM 2′3′cGAMP ->150 μM stock • Solution B: 2 mL Optimem with 60 μL Lipofectamine 2000->Incubate 5 min at RT
2 mL of solution A and 2 ml Solution B was mixed and incubated for 20 min at room temperature (RT). 20 uL of transfection solution (A+B) was added on top of the plated cells, with a final 2′3′cGAMP concentration of 15 μM. The plates were then centrifuged immediately at 340 g for 1 minute, after which they were incubated at 37° C., 5% CO2, >98% humidity for 24h. Luciferase reporter activity was then measured. EC50 values were calculated by using standard methods known in the art.
Luciferase reporter assay: 10 μL of supernatant from the assay was transferred to white 384-plate with flat bottom and squared wells. One pouch of QUANTI-Luc™ Plus was dissolved in 25 mL of water. 100 μL of QLC Stabilizer per 25 mL of QUANTI-Luc™ Plus solution was added. 50 μL of QUANTI-Luc™ Plus/QLC solution per well is then added. Luminescence is measured on a Platereader (e.g., Spectramax I3X (Molecular Devices GF3637001)).
Luciferase reporter activity was then measured. EC50 values were calculated by using standard methods known in the art.

Sequence of STING (Q86WV6 whole entry R71H/G230A/H232R/R293Q): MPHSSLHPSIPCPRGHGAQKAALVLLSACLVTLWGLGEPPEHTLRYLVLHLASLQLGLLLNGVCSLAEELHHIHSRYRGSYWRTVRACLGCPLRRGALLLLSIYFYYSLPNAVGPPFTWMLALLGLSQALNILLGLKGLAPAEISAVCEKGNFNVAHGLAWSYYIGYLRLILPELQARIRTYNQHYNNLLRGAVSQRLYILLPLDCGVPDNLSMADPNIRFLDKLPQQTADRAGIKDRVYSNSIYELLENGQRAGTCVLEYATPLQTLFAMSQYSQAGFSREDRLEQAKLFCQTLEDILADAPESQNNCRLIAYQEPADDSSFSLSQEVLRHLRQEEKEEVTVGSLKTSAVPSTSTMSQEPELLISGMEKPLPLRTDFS

EC50 (numeric bounds) [µM] | EC50 (class symbols) [µM] | SMILES
> 30 |  | O=C(NCc1cnccn1)Nc1ccc2cc[nH]c2c1 [Compound 219]
 | 5 to 100 | CC(C)c1cccc(Nc2ccc3cc[nH]c3c2)n1 [Compound 406, N-(6-isopropylpyridin-2-yl)-1H-indol-6-amine]
> 30 |  | Cc1nc(Nc2ccc3ccn(-c4ccc(OC(C)C)c(C)n4)c3c2)ccc1OC(C)C [Compound 569, N,1-bis[6-methyl-5-(propan-2-yloxy)pyridin-2-yl]-1H-indol-6-amine]
 | 1 to 5 | CC(C)CCNC(=O)Nc1ccc2cc[nH]c2c1 [Compound 215]
 | 1 to 5 | O=C(Nc1ccnc(C(F)(F)F)c1)Nc1ccc2cc[nH]c2c1 [Compound 250]
> 30 |  | CC(Cc1cccc(C(F)(F)F)c1)NC(=O)Nc1ccc2[nH]ccc2c1 (centres unmarked) [Compound 288]
 | 0.2 to 1 | O=C(Nc1ccc(OC2CC(F)(F)C2)nc1)Nc1ccc2cc[nH]c2c1 [Compound 248]
 | 5 to 100 | O=C(Nc1ccc2[nH]ccc2c1)Nc1cc(C2CCC2)no1 [Compound 302]
> 30 |  | FC(F)(F)COc1ccnc(Nc2ccc3cc[nH]c3c2)n1 [Compound 410, N-(4-(2,2,2-trifluoroethoxy)pyrimidin-2-yl)-1H-indol-6-amine]
> 30 |  | c1cc(Nc2ccc3cc[nH]c3c2)nc(C2CC2)c1 [Compound 433, N-(6-cyclopropylpyridin-2-yl)-1H-indol-6-amine]
 | 0.2 to 1 | CCCCCCCCCCCCCCNC(=O)Nc1ccc2cc[nH]c2c1 [Compound 236]
 | 0.2 to 1 | FC(F)(F)c1nc(Nc2ccc3cc[nH]c3c2)ccc1Cl [Compound 405, N-(5-chloro-6-(trifluoromethyl)pyridin-2-yl)-1H-indol-6-amine]
 | 1 to 5 | CCC(NC(=O)Nc1ccc2cc[nH]c2c1)c1cccc(C(F)(F)F)c1 (centres unmarked) [Compound 199]
 | 5 to 100 | CC(C)(C)OC(=O)N1Cc2cnc(Nc3ccc4cc[nH]c4c3)nc2C1 [Compound 418, tert-butyl 2-((1H-indol-6-yl)amino)-5H-pyrrolo[3,4-d]pyrimidine-6(7H)-carboxylate]
 | 0.2 to 1 | Cc1cc2ccc(Nc3ccc4cc[nH]c4c3)nc2cc1C(F)(F)F [Compound 552]
 | 1 to 5 | O=C(Nc1ccc2cc[nH]c2c1)Nc1ccc(N2CCC(F)(F)CC2)cn1 [Compound 249]
 | 5 to 100 | C#Cc1ccc(NC(=O)Nc2ccc3[nH]ccc3c2)cc1 [Compound 151]
> 30 |  | O=C(Nc1cccc(S(F)(F)(F)(F)F)c1)Nc1ccc2[nH]ccc2c1 [Compound 346]
> 30 |  | O=C(Nc1ccc2cc[nH]c2c1)Nc1ccccc1F [Compound 230]
> 30 |  | Cc1cccc(CNC(=O)Nc2ccc3[nH]ccc3c2)c1 [Compound 340]
> 30 |  | O=C(Nc1ccc2[nH]ccc2c1)Nc1ccccc1Cl [Compound 362]
> 30 |  | O=C(Nc1ccc2[nH]ccc2c1)Nc1cc2ccc(C(F)(F)F)cn2n1 [Compound 299]
 | 5 to 100 | O=C(Nc1ccc2[nH]ccc2c1)Nc1cc2cccc(C(F)(F)F)n2n1 [Compound 309]

EC50 (numeric bounds) [µM] | EC50 (class symbols) [µM] | SMILES
 | 0.2 to 1 | CCCCCCCCCCCCCCCCNC(=O)Nc1ccc2cc[nH]c2c1 [Compound 235]
> 30 |  | O=C(NCC1CCC1)Nc1ccc2cc[nH]c2c1 [Compound 216]
 | 1 to 5 | COCCc1cc(NC(=O)Nc2ccc(C(F)(F)F)cc2)cc2[nH]ccc12 [Compound 505]
 | 5 to 100 | N#Cc1cc2cc(NC(=O)Nc3ccc(C(F)(F)F)cc3)ccc2[nH]1 [Compound 370]
 | 0.2 to 1 | O=C(Nc1cnc(N2CC(F)(F)C2)c(Cl)c1)Nc1ccc2c(F)c[nH]c2c1 [Compound 514]
 | 0.2 to 1 | Cc1cc(NC(=O)Nc2cc(Cl)c3cc[nH]c3c2)cnc1N1CCC(F)(F)CC1 [Compound 500]
 | 0.04 to 0.2 | O=C(Nc1ccc(C2CC(F)(F)C2)c(F)c1)Nc1cc(Cl)c2cc[nH]c2c1 [Compound 548]
 | 5 to 100 | O=C(Nc1cccc(OC(F)F)c1)Nc1ccc2[nH]ccc2c1 [Compound 343]
 | 0.2 to 1 | Fc1cc2ccc(Nc3ccc4cc[nH]c4c3)nc2cc1C(F)(F)F [Compound 551]
> 30 |  | Cc1ccc(CCNC(=O)Nc2ccc3[nH]ccc3c2)cc1C [Compound 356]
 | 0.2 to 1 | N#Cc1c[nH]c2cc(NC(=O)Nc3ccc(C(F)(F)F)cc3)ccc12 [Compound 258, 3-(3-cyano-1H-indol-6-yl)-1-[4-(trifluoromethyl)phenyl]urea]
 | 0.2 to 1 | C#Cc1ccc(NC(=O)Nc2ccc3cc[nH]c3c2)cc1 [Compound 152]
 | 0.04 to 0.2 | O=C(Nc1ccc(C(F)(F)F)cc1)Nc1cc(Br)c2cc[nH]c2c1 [Compound 155]
 | 0.2 to 1 | O=C(Nc1cnc(N2CC(F)(F)C2)c(F)c1)Nc1cc(Cl)c2cc[nH]c2c1 [Compound 516]
> 30 |  | Cc1ccccc1NC(=O)Nc1ccc2[nH]ccc2c1 [Compound 365]
 | 5 to 100 | CN(C)C(=O)c1cc(NC(=O)Nc2ccc(C(F)(F)F)cc2)cc2[nH]ccc12 [Compound 547]
 | 1 to 5 | CC(=O)n1cc(C#N)c2ccc(NC(=O)Nc3ccc(C(F)(F)F)cc3)cc21 [Compound 529]
 | 1 to 5 | Fc1cc(C(F)(F)F)cc2nc(Nc3ccc4cc[nH]c4c3)ccc12 [Compound 554]
> 30 |  | CCc1ccnc(Nc2ccc3cc[nH]c3c2)c1 [Compound 392, N-(4-ethylpyridin-2-yl)-1H-indol-6-amine]
> 30 |  | Cc1nc(Nc2ccc3cc[nH]c3c2)ccc1F [Compound 584, N-(5-fluoro-6-methylpyridin-2-yl)-1H-indol-6-amine]
 | 0.2 to 1 | CCCCc1ccc(NC(=O)Nc2ccc3cc[nH]c3c2)cc1 [Compound 273]
> 30 |  | Cc1ccc(CNC(=O)Nc2ccc3[nH]ccc3c2)cc1C [Compound 337]
> 30 |  | O=C(NCCc1ccccc1)Nc1ccc2[nH]ccc2c1 [Compound 327]

EC50 (numeric bounds) [µM] | EC50 (class symbols) [µM] | SMILES
 | 1 to 5 | O=C(Nc1ccc(S(F)(F)(F)(F)F)cc1)Nc1ccc2[nH]ccc2c1 [Compound 291]
 | 5 to 100 | O=C(NCCN1CCC(Cc2ccccc2)CC1)Nc1ccc2cc[nH]c2c1 [Compound 174]
 | 5 to 100 | O=S(=O)(c1ccc(Nc2ccc3cc[nH]c3c2)nc1)N1CCCCC1 [Compound 422, N-(5-(piperidin-1-ylsulfonyl)pyridin-2-yl)-1H-indol-6-amine]
 | 0.2 to 1 | N#Cc1cc(Nc2ccc3cc[nH]c3c2)cc(Nc2ccc3cc[nH]c3c2)n1 [Compound 582, 4,6-bis[(1H-indol-6-yl)amino]pyridine-2-carbonitrile]
 | 0.2 to 1 | O=C(Nc1ccc(Cl)c(F)c1)Nc1ccc2cc[nH]c2c1 [Compound 226]
> 30 |  | O=C(NCCN1CCC(Cc2ccccc2)CC1)Nc1ccc2[nH]ccc2c1 [Compound 294]
 | 1 to 5 | C1=C(c2ccc3ccc(Nc4ccc5cc[nH]c5c4)nc3c2)CCCC1 [Compound 606, 7-(cyclohex-1-en-1-yl)-N-(1H-indol-6-yl)quinolin-2-amine]
 | 5 to 100 | O=C(Nc1cccc(C(F)(F)F)c1)Nc1ccc2[nH]ccc2c1 [Compound 374]
 | 5 to 100 | CN(C(=O)Nc1ccc(C(F)(F)F)cc1)c1ccc2cc[nH]c2c1 [Compound 264]
> 30 |  | O=S(=O)(c1ccc(Nc2ccc3cc[nH]c3c2)nc1)N1CCCC1 [Compound 423, N-(5-(pyrrolidin-1-ylsulfonyl)pyridin-2-yl)-1H-indol-6-amine]
 | 1 to 5 | COc1ccc2ccc(Nc3ccc4cc[nH]c4c3)nc2c1 [Compound 587, N-(1H-indol-6-yl)-7-methoxyquinolin-2-amine]
> 30 |  | CCS(=O)(=O)c1ccc(CNC(=O)Nc2ccc3[nH]ccc3c2)cn1 [Compound 300]
 | 0.2 to 1 | O=C(Nc1cnc(N2CC(F)(F)C2)c(F)c1)Nc1ccc2c(F)c[nH]c2c1 [Compound 531]
> 30 |  | COC(=O)c1ccc(Nc2ccc3cc[nH]c3c2)nc1OC [Compound 597]
 | 1 to 5 | O=C(Nc1ccc(C(F)(F)F)cc1)Nc1cc(-c2ccccc2)c2cc[nH]c2c1 [Compound 169]
 | 5 to 100 | CCCCC1CCC(NC(=O)Nc2ccc3cc(Cl)[nH]c3c2)CC1 (centres unmarked) [Compound 260]
> 30 |  | O=C(Nc1cnc2cc(C(F)(F)F)ccc2c1)Nc1ccc2[nH]ccc2c1 [Compound 285]
> 30 |  | CCS(=O)(=O)c1ccc(CNC(=O)Nc2ccc3cc[nH]c3c2)cn1 [Compound 179]
> 30 |  | Cc1cc(NC(=O)Nc2ccc(C(F)(F)F)cc2)cc2c1ccn2-c1cn[nH]c1 [Compound 156]
 | 1 to 5 | Cc1ccccc1CNC(=O)Nc1ccc2cc[nH]c2c1 [Compound 224]
 | 0.2 to 1 | FC(F)(F)c1ccc2ccc(Nc3cc(Cl)c4cc[nH]c4c3)nc2c1 [Compound 604]
> 30 |  | FC(F)Oc1ccc(Nc2ccc3cc[nH]c3c2)nc1 [Compound 413, N-(5-(difluoromethoxy)pyridin-2-yl)-1H-indol-6-amine]
